Measured values published in the supplement of paper PMC10307832.

Compound: O=C(NC1CCNCC1)c1n[nH]cc1NC(=O)c1c(Cl)cccc1Cl [AT-7519] + COc1cc2c(Oc3ccc(NC(=O)C4(C(=O)Nc5ccc(F)cc5)CC4)cc3F)ccnc2cc1OCCCN1CCOCC1 [Foretinib] (partner 0.25 µM)
Test: relative viability (nuclei count vs DMSO), 5 days (fraction); higher = more cells survive
Settings: first compound 1 µM
How it was run: (§1)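 Nuclei were stained with Hoechst during a one-step fixation (final 0.05% Triton X-100, 1% formaldehyde, 1 ug/ml Hoechst) carried out 5 days after dosing, then counted on 4× images. The cells, lung cancer lines in 1536-well plates, had been dosed by pin tool the day after seeding with one drug alone or a fixed anchor-drug dose plus five library-drug doses (not always all listed) in √10 steps. Relative viability is the nuclei count in treated wells divided by that in vehicle wells, and each value is the median of duplicate plates.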

In order of rising relative viability:
1. NCI-H358  0.194
2. SW 900  0.442
3. NCI-H661  0.468
4. ABC-1  0.541
5. LU99A  0.556
6. HARA  0.591
7. BEN  0.8
8. NCI-H1563  0.957
9. NCI-H650  1.08
10. NCI-H1299  1.15

Compound: O=C(NC1CCNCC1)c1n[nH]cc1NC(=O)c1c(Cl)cccc1Cl [AT-7519] + Nc1nc2[nH]cc(CCc3ccc(C(=O)N[C@@H](CCC(=O)O)C(=O)O)cc3)c2c(=O)[nH]1 [Pemetrexed] (partner 0.2 µM)
Test: as above
Settings: first compound 0.01 µM
How it was run: as §1

In order of falling relative viability:
1. COR-L 105  1.26
2. SK-MES-1  1.12
3. NCI-H650  1.07
4. NCI-H2405  1.02
5. NCI-H522  0.992
6. NCI-H661  0.945
7. NCI-H2085  0.924
8. NCI-H1666  0.871
9. NCI-H520  0.815
10. NCI-H1648  0.806
11. NCI-H2342  0.789
12. SW 1573  0.745
13. NCI-H1563  0.743
14. BEN  0.713
15. NCI-H2126  0.711
16. HCC-44  0.622
17. NCI-H2087  0.612
18. NCI-H1792  0.612
19. H3255  0.559
20. NCI-H1993  0.536
21. NCI-H596  0.473
22. EMC-BAC-2  0.464
23. LCLC-103H  0.461
24. SW 900  0.453
25. NCI-H1650  0.376
26. HOP-62  0.359
27. LOU-NH91  0.306
28. LK-2  0.305
29. ChaGo-K-1  0.27
30. NCI-H2170  0.263
31. NCI-H838  0.247
32. HARA  0.234
33. LU99A  0.215
34. COR-L23  0.182
35. HCC-366  0.178
36. NCI-H358  0.175

Same assay, conditions: first compound 0.03162 µM

In order of rising relative viability:
1. HCC-366  0.162
2. NCI-H358  0.172
3. COR-L23  0.184
4. LU99A  0.199
5. NCI-H838  0.246
6. LK-2  0.259
7. ChaGo-K-1  0.267
8. NCI-H2170  0.276
9. HARA  0.298
10. HOP-62  0.335
11. NCI-H1650  0.35
12. LOU-NH91  0.359
13. SW 900  0.425
14. EMC-BAC-2  0.442
15. LCLC-103H  0.476
16. NCI-H596  0.501
17. NCI-H2087  0.536
18. NCI-H1993  0.581
19. H3255  0.589
20. NCI-H520  0.635
21. NCI-H1792  0.645
22. HCC-44  0.696
23. NCI-H2342  0.743
24. NCI-H2126  0.745
25. BEN  0.766
26. NCI-H1666  0.777
27. SW 1573  0.833
28. NCI-H1563  0.868
29. NCI-H522  0.943
30. NCI-H661  0.953
31. NCI-H2405  0.996
32. NCI-H650  1
33. NCI-H2085  1.01
34. SK-MES-1  1.04
35. COR-L 105  1.08

Same assay, conditions: first compound 0.3162 µM

In order of rising relative viability:
1. NCI-H358  0.164
2. LU99A  0.165
3. HCC-366  0.185
4. COR-L23  0.211
5. LK-2  0.212
6. NCI-H2170  0.241
7. HARA  0.25
8. ChaGo-K-1  0.276
9. NCI-H838  0.281
10. HOP-62  0.302
11. NCI-H1650  0.323
12. LOU-NH91  0.385
13. SW 1573  0.401
14. LCLC-103H  0.437
15. EMC-BAC-2  0.438
16. SW 900  0.452
17. NCI-H596  0.459
18. H3255  0.499
19. NCI-H1993  0.522
20. NCI-H2087  0.568
21. NCI-H520  0.619
22. HCC-44  0.65
23. NCI-H1648  0.666
24. NCI-H1792  0.666
25. NCI-H2126  0.689
26. NCI-H2342  0.762
27. NCI-H1563  0.81
28. BEN  0.823
29. NCI-H1666  0.828
30. NCI-H2085  0.901
31. NCI-H650  0.931
32. SK-MES-1  0.982
33. NCI-H661  0.99
34. NCI-H522  1.03
35. COR-L 105  1.07
36. NCI-H2405  1.08

Same assay, conditions: first compound 1 µM

In order of falling relative viability:
1. NCI-H650  1.25
2. NCI-H2085  0.986
3. NCI-H522  0.929
4. NCI-H1792  0.919
5. NCI-H1563  0.807
6. SK-MES-1  0.798
7. NCI-H2405  0.729
8. BEN  0.706
9. HCC-44  0.703
10. NCI-H1648  0.691
11. NCI-H2342  0.687
12. COR-L 105  0.657
13. NCI-H1666  0.651
14. NCI-H2126  0.576
15. NCI-H1993  0.532
16. EMC-BAC-2  0.514
17. NCI-H596  0.513
18. LOU-NH91  0.506
19. H3255  0.503
20. SW 900  0.478
21. LCLC-103H  0.401
22. NCI-H520  0.389
23. NCI-H2087  0.344
24. HOP-62  0.328
25. HARA  0.296
26. NCI-H661  0.262
27. ChaGo-K-1  0.254
28. NCI-H2170  0.25
29. HCC-366  0.216
30. LK-2  0.201
31. LU99A  0.198
32. NCI-H1650  0.197
33. COR-L23  0.173
34. NCI-H358  0.132
35. SW 1573  0.126
36. NCI-H838  0.115
